Patent US12583855B2, “RET selective inhibitor, preparation method therefor and use thereof” (SHOUYAO HOLDINGS (BEIJING) CO., LTD., priority 2019, dated 2026)
Positions count from the first letter of the chain named. pIC50: −log10 of the molar value.

Assays:
VEGFR2 = VEGFR2 (Homo sapiens, UniProt P35968); assay: In vitro enzymatic activity assay on VEGFR2 (HTRF); format: biochemical; settings: GST-VEGFR2 0.1 nM, ATP 2.5 μM
Outline: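 GST-VEGFR2 (0.1 nM final) with 2.5 μM ATP and 1 μM TK peptide substrate in HEPES pH 7.5 buffer with Mg²⁺/Mn²⁺, 1.5 h at 23 °C. HTRF read-out (665/620 nm ratio) after adding TK antibody and streptavidin-XL665. IC50 from 7-point, 5-fold dilution series.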

TT cells = assay: TT cell proliferation activity (Cell-Titer Glo); format: cell-based; settings: TT human thyroid carcinoma cells, 120 h
Description: 4. Determination of TT Cell Proliferation Activity of Compounds
TT cells, a human thyroid carcinoma cell line, were cultured in Ham's F-12K medium supplemented with 15% fetal bovine serum (FBS, purchased from Biological Industries, BI) and 1% penicillin/streptomycin double antibody (P/S, purchased from Life Technology) under conditions of 37° C. and 5% CO2. TT cells were plated in a 96-well plate (#3917 purchased from Corning) at a concentration of 5000 cells/195 μL/well the day before compound was detected. The compounds were diluted 3-fold with 100% DMSO starting from 10 mM (10 concentrations in total) after 24 h, and 2 μL of each concentration was diluted in 48 μL of Ham's F-12K medium. 5 μL of each diluted compound was added to the plated Cell suspension, the compound and cells were co-incubated in a cell incubator for 120 h (5 days), after the medium was aspirated. 25 μL of Cell-Titer Glo (G7570, purchased from Promega) reagent was added and re-incubated for 5-10 min. Fluorescence value was then read on Envision and the data were calculated using GraphPad Prism software to obtain IC50 values for inhibition of cell proliferation by the compounds.

[1] = Pharmacokinetic data of compounds in male SD rats; format: in vivo; settings: rat, po, intragastric, 5 mg/kg, suspension MC 0.5%, plasma
Description: 6. Pharmacokinetic Data of Compounds
Male SD rats (Beijing Vital River Laboratory Animal Technology Co., Ltd) were divided into groups. 3 in each group, received intragastric administration with the suspension of the test sample (5 mg/kg, suspensions MC 0.5%), respectively. Animals were fasted overnight prior to the experiment from 10 h before dosing to 4 h after dosing. Blood was collected 0.25, 0.5, 1, 2, 4, 6, 8, and 24 h after administration, respectively. After isoflurane anesthesia using a small animal anesthesia machine, 0.3 mL of whole blood samples was taken through the fundus venous plexus, placed in a heparin anticoagulant tube, and were centrifuged at 4° C. 4000 rpm for 5 min plasma was transferred to the centrifuge tube, and stored at −80° C. until analysis. Samples in the plasma were extracted using protein precipitation and the extracts were analyzed by LC/MS.

RET^WT = target: T1, RET^WT (Homo sapiens, UniProt P07949); assay: In vitro enzymatic activity assay on RET^WT (HTRF); format: biochemical; settings: GST-RET^WT (658-1114 aa) 0.5 nM, ATP 25 μM
T1 construct: GST-RET^WT (658-1114 aa, final concentration of 0.5 nM)
T1 sequence (P07949 658-1114): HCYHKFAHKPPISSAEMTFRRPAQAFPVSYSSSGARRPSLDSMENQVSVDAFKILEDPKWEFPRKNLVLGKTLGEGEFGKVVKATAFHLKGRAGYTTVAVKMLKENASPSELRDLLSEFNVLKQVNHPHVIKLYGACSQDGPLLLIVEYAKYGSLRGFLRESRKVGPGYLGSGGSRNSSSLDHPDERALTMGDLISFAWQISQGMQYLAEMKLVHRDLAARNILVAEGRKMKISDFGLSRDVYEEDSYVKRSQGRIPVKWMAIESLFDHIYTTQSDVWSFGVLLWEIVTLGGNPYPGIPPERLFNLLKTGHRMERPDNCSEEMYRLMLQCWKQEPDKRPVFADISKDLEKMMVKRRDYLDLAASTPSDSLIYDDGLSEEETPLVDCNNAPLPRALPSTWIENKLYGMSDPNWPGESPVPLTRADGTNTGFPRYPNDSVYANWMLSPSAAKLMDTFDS
Outline: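 Reaction run 2 h at 23 °C in HEPES pH 7.5 buffer with Na3VO4, MgCl2, DTT, Tween 20 and BSA; compounds tested at 7 concentrations (5-fold serial dilution in DMSO from 0.2 mM stock). HTRF detection with TK antibody and streptavidin-XL665; IC50 from curve fitting.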

RET^V804M = target: T2, RET^V804M (Homo sapiens, UniProt P07949, V804M); assay: In vitro enzymatic activity assay on RET^V804M (HTRF); format: biochemical; settings: GST-RET^V804M (658-1114 aa) 0.02 nM, ATP 1.5 μM
T2 construct: GST-RET^V804M (658-1114 aa, final concentration of 0.02 nM)
T2 sequence (P07949 658-1114 V804M): T1 sequence (P07949 658-1114) with V147M

KIF5B-RET/HEK293T cells = assay: Cell proliferation activity in KIF5B-RET/HEK293T cells (Cell-Titer Glo); format: cell-based; settings: Homo sapiens, HEK-293T, 72 h, read-out: KIFSB-RETV^804M/293T (Cell)IC50

Chain of VEGFR2 (P35968 20-1356): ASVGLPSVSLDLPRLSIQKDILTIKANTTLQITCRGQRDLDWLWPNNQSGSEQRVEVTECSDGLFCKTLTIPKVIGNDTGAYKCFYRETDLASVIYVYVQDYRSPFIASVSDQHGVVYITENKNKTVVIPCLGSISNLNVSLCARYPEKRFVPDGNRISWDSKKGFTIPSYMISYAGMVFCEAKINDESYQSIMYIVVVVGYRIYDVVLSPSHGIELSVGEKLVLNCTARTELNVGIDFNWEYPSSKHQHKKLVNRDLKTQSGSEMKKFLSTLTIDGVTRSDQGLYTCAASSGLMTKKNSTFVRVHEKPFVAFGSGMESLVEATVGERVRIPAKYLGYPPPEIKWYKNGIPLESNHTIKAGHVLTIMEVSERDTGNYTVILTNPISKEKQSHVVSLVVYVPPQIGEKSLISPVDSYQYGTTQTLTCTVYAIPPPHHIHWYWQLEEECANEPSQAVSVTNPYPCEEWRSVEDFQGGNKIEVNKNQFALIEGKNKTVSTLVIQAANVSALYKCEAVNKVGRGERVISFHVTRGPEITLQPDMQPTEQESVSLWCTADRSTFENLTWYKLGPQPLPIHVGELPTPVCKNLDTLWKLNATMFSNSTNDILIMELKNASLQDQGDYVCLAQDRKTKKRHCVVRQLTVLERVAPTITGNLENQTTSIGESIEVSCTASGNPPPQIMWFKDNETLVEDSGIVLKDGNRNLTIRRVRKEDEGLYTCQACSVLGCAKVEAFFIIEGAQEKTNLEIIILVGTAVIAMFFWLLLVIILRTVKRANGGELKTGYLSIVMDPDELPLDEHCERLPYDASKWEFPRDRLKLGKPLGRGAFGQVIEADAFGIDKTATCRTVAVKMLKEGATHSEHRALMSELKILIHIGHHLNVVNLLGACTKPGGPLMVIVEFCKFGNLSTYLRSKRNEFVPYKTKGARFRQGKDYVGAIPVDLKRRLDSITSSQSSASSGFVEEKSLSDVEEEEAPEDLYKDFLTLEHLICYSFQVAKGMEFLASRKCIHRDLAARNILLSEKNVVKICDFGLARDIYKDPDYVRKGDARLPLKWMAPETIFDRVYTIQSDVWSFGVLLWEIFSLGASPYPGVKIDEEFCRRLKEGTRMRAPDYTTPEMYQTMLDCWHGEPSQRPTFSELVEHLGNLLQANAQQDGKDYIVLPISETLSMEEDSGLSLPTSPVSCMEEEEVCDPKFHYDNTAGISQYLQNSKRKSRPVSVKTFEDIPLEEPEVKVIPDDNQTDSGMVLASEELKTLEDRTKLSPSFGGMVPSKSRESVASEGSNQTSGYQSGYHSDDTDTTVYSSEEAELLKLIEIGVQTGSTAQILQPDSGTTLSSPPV

Row | Structure (SMILES) | pIC50 (VEGFR2) | AUC(0-inf) [1] | Cmax [1] | Tmax [1] | half-life [1] | pIC50 (TT cells) | pIC50 (RET^WT) | pIC50 (RET^V804M) | pIC50 (KIF5B-RET/HEK293T cells)
1 | CS(=O)(=O)c1ccc(CN2C3CC2CN(c2ccc(-c4cc(-c5cnn(C(F)F)c5)cn5ncc(C#N)c45)cn2)C3)cc1 [Example 45, 6-(1-difluoromethyl-1Hpyrazol-4-yl)-4-(6-(6-(4-(methylsulfonyl)benzyl)-3,6-diazabicyclo[3.1.1]heptan-3-yl)pyridin-3-yl) pyrazolo[1,5-a] pyridine-3-carbonitrile] | 8.30 | 27500 ng·h/mL | 3560 ng/mL | 1.83 h | 3.21 h | 7.64 | 9.80 | 9.09 | 
2 | CC1(O)CN(c2cc(-c3ccc(N4CC5CC(C4)N5Cc4cccc(S(C)(=O)=O)c4)nc3)c3c(C#N)cnn3c2)C1 [Example 65, 6-(3-hydroxy-3-methylazetidin-1-yl)-4-(6-(6-(3-(methylsulfonyl)benzyl)-3,6-diazabicyclo[3.1.1]heptan-3-yl)pyridin-3-yl)pyrazolo[1,5-a]pyridine-3-carbonitrile] | 7.71 |  |  |  |  | 7.62 | 9.17 | 8.73 | 6.46
3 | Cn1cc(-c2cc(-c3ccc(N4CC5CC(C4)N5Cc4cccc(S(C)(=O)=O)c4)nc3)c3c(C#N)cnn3c2)cn1 [Example 20, 6-(1-methyl-1Hpyrazol-4-yl)-4-(6-(6-(3-(methylsulfonyl)benzyl)-3,6-diazabicyclo[3.1.1]heptan-3-yl)pyridin-3-yl)pyrazolo[1,5-a]pyridine-3-carbonitrile] | 8.19 |  |  |  |  | 8.18 | 10.04 | 9.63 | 6.84
4 | CSc1ccc(CN2C3CC2CN(c2ccc(-c4cc(-c5cnn(C)c5)cn5ncc(C#N)c45)cn2)C3)nc1 [Example 22, 6-(1-methyl-1Hpyrazol-4-yl)-4-(6-(6-((5-(methylthio)pyridin-2-yl)methyl)-3,6-diazabicyclo[3.1.1]heptan-3-yl)pyridin-3-yl)pyrazolo[1,5-a]pyridine-3-carbonitrile] |  |  |  |  |  | 7.89 | 9.91 | 9.62 | 6.83
5 | Cn1cc(-c2cc(-c3ccc(N4CC5CC(C4)N5Cc4ccc(S(C)(=O)=O)cc4)nc3)c3c(C#N)cnn3c2)cn1 [Example 25, 6-(1-methyl-1Hpyrazol-4-yl)-4-(6-(6-(4-(methylsulfonyl)benzyl)-3,6-diazabicyclo[3.1.1]heptan-3-yl)pyridin-3-yl)pyrazolo[1,5-a]pyridine-3-carbonitrile] |  |  |  |  |  | 8.22 | 9.83 | 9.63 | 6.84
6 | CS(=O)(=O)c1ccc(CN2C3CC2CN(c2ccc(-c4cc(-c5cnn(C(F)F)c5)cn5ncc(C#N)c45)cn2)C3)nc1 [Example 78, 6-(1-(difluoromethyl)-1Hpyrazol-4-yl)-4-(6-(6-((5-(methylsulfonyl)pyridin-2-yl)methyl)-3,6-diazabicyclo[3.1.1]heptan-3-yl)pyridine-3-yl)pyrazolo[1,5-a]pyridine-3-carbonitrile] | 7.98 |  |  |  |  | 7.55 | 9.41 | 8.98 | 
7 | CS(=O)(=O)c1cccc(CN2CCN(c3ccc(-c4cc(-c5cnn(C(F)F)c5)cn5ncc(C#N)c45)cn3)CC2)c1 [Example 47, 6-(1-difluoromethyl-1Hpyrazol-4 yl)-4-(6-(4-(3-(methylsulfonyl)benzyl)piperazin-1-yl)pyridin-3-yl)pyrazolo[1,5-a]pyridine-3-carbonitrile] | 7.77 |  |  |  |  | 7.27 | 9.46 | 8.61 | 

Second part, led by results:

Row | pIC50 (VEGFR2) | AUC(0-inf) [1] | Cmax [1] | Tmax [1] | half-life [1] | Structure (SMILES) | pIC50 (TT cells) | pIC50 (RET^WT) | pIC50 (RET^V804M) | pIC50 (KIF5B-RET/HEK293T cells)
8 | 7.93 | 6650 ng·h/mL | 1330 ng/mL | 1.17 h | 3.56 h | Cn1cc(-c2cc(-c3ccc(N4CCN(Cc5cccc(S(C)(=O)=O)c5)CC4)nc3)c3c(C#N)cnn3c2)cn1 [Example 15, 6-(1-methyl-1Hpyrazol-4-yl)-4-(6-(4-(3-(methylsulfonyl)benzyl)piperazin-1-yl)pyridin-3-yl)pyrazolo[1,5-a]pyridine-3-carbonitrile] | 7.75 |  |  | 
9 | 8.05 | 42700 ng·h/mL | 3790 ng/mL | 4 h | 4.08 h | Cn1cc(-c2cc(-c3ccc(N4CCN(Cc5ccc(S(C)(=O)=O)cc5)CC4)nc3)c3c(C#N)cnn3c2)cn1 [Example 16, 6-(1-methyl-1Hpyrazol-4-yl)-4-(6-(4-(4-(methylsulfonyl)benzyl)piperazin-1-yl)pyridin-3-yl)pyrazolo[1,5-a]pyridine-3-carbonitrile] | 7.44 |  |  | 
10 | 7.85 |  |  |  |  | CSc1ccc(CN2CCN(c3ccc(-c4cc(-c5cnn(C)c5)cn5ncc(C#N)c45)cn3)CC2)cc1 [Example 17, 6-(1-methyl-1Hpyrazol-4-yl)-4-(6-(4-(4-(methylthio)benzyl)piperazin-1-yl)pyridin-3-yl)pyrazolo[1,5-a]pyridine-3-carbonitrile] |  |  |  | 6.40
11 | 8.05 |  |  |  |  | CC1=C(C(=O)N2CCN(c3ccc(-c4cc(-c5cnn(C)c5)cn5ncc(C#N)c45)cn3)CC2)CCC1 [Example 6, 6-(1-methyl-1Hpyrazol-4-yl)-4-(6-(4-(2-methylcyclopent-1-ene-1-carbonyl)piperazin-1-yl)pyridin-3-yl)pyrazolo[1,5-a]pyridine-3-carbonitrile] | 7.86 | 9.48 | 8.90 | 
12 | 7.86 | 15300 ng·h/mL | 1490 ng/mL | 4 h | 3.38 h | CSc1ccc(CN2CCN(c3ccc(-c4cc(-c5cnn(C)c5)cn5ncc(C#N)c45)cn3)CC2)cn1 [Example 10, 6-(1-methyl-1Hpyrazol-4-yl)-4-(6-(4-((6-(methylthio)pyridin-3-yl)methyl)piperazin-1-yl)pyridin-3-yl)pyrazolo[1,5-a]pyridine-3-carbonitrile] | 7.62 |  |  | 
13 | 7.87 |  |  |  |  | Cn1cc(-c2cc(-c3ccc(N4CCN(C(=O)C5=CCCC5)CC4)nc3)c3c(C#N)cnn3c2)cn1 [Example 2, 4-(6-(4-(cyclopent-1-ene-1-carbonyl)piperazin-1-yl)pyridin-3-yl)-6-(1-methyl-1Hpyrazol-4-yl)pyrazolo[1,5-a]pyridine-3-carbonitrile] | 7.58 | 9.97 | 9.04 | 
